Results: patent publication US20240398749A1, “INHALABLE PROTEASE INHIBITORS FOR USE IN THE PREVENTION AND/OR TREATMENT OF FIBROTIC AUTOIMMUNE OR INFLAMMATORY LUNG DISEASES” (priority 2021, published 2024)
Values joined by “and” are separate entries in the source; they are usually repeats but may differ in a detail not shown here. Identical values can stand only once. Like-named read-outs stand apart in the source and are kept apart here.

Tests used:
[1] = system: human peripheral blood cells (PBI); experiment: Chromosome aberration test
[2] = system: Mouse-Coronavirus; conditions: Mouse-Coronavirus model systems; cited from earlier work
[3] = system: A549 cells; experiment: IL-8 release from A549 cells, spontaneous or TGFbeta-induced; assay type: cell-based; conditions: TGFbeta stimulation, 24 h, 10 μg/ml E64D
[4] = system: pseudovirus; experiment: Pseudovirus inoculation of human ACE2 transgenic mice, bioluminescence assay; assay type: in vivo; conditions: pre-treated via tail vein injection 2 days prior to virus inoculation; 1 day post infection
[5] = Nebulizer test / cascade impactor measurements with M-neb dose+; assay type: physicochemical
[6] = system: SARS-CoV-2; assay type: cell-based; conditions: A549, MOI 5, 100 μM
[7] = system: Wistar rats; experiment: Dose range finding study, 14 days nose-only inhalation; assay type: in vivo; conditions: for lung with a spongy consistency (animals affected): females
Text: The purpose of this study was to perform a dose range finding (DRF) study using 14 days nose-only-inhaled Aloxistatin in rats. Possible side effects of Aloxistatin were characterized based on clinical observations, body weight, hematology, clinical pathology, macroscopic examination and histopathology of selected organs (respiratory tract, heart, kidneys, liver and spleen). Additionally, the setup of chemical analysis method for toxicokinetic analysis was established.
For the study, 64 Wistar rats [Crl:Wistar(Han)] received the test item at doses of 22.67, 68 or 227 μg/kg bw for 14 consecutive days via nose-only inhalation. Ethanol ≥96% was used as vehicle. Animals of the main study were sacrificed on […].
All animals were clinically observed in their cages at least once a day. Individual body weights were determined twice weekly. Blood samples for hematology and clinical chemistry were withdrawn before the exposure and on day 14. Necropsy, including a macroscopic evaluation of selected organs, was performed on day 15 or day 29 followed by histopathology of preselected organs. All macroscopic changes were recorded. Blood and lung sampling for setup of chemical analysis method for toxicokinetic analysis was performed on day 1 and 15 and upon sacrifice (day 2 and 15), respectively.

[8] = system: SARS-CoV-2; conditions: E64d added to the TMPRSS2 inhibitor Camostat; cited from earlier work
[9] = system: A549 cells; assay type: cell-based
[10] = system: fibroblasts; assay type: cell-based
[11] = system: SARS-CoV-2; assay type: cell-based; conditions: HEK293-ACE2, MOI 5, 100 μM
[12] = system: Th17 differentiation; conditions: rats; cited from earlier work
[13] = system: Salmonella typhimurium strains TA 1535, TA 1537, TA 98, TA 100, and the Escherichia coli strain WP2 uvrA; experiment: Reverse mutation assay (plate incorporation test)
[14] = system: Th17-lymphocytes; experiment: Measurement of Th17-lymphocytes by flow cytometry; assay type: cell-based, human
[15] = system: THP1 cells (macrophage-like cell line); experiment: IL-8 release from stimulated THP1 cells; assay type: cell-based; conditions: IL-1 or TNF/IL-1 stimulated cells, 24 hours
Description: This stimulation corresponds to a pro-inflammatory response. The supernatants were then removed, and the IL-8 release was measured.

[16] = system: Vero e6-cells; conditions: concentrations up to 100 μM
[17] = cited from earlier work
[18] = in vivo, po; cited from earlier work
[19] = system: IL-17 release; experiment: IL-17 release from human mononuclear cells in whole blood stimulated with cytokines; assay type: cell-based
[20] = physchem; conditions: organic solvent or mixture
[21] = system: rats; experiment: Toxicology study, 14-day inhalational applications; conditions: inhalation on 14 consecutive days
[22] = system: mice; conditions: cited from earlier work
[23] = 22.67, 68 or 227 μg/kg bw, 14 days nose-only inhalation

CCOC(=O)[C@H]1O[C@@H]1C(=O)N[C@@H](CC(C)C)C(=O)NCCC(C)C [E64D, aloxistatin]
aberrant cells (gaps excluded) ([1]; after 4 h of treatment, both without and with S9-mix): only one aberrant cell | structural chromosome aberrations ([1]; treated PBL): nearly complete absence of structural chromosome aberrations | virus replication [2]: effective inhibition of virus replication | TGFbeta-induced IL-8 release [3]: block the induction almost completely | bioluminescence activity (virus replication) [4]: decrease in bioluminescence activity | aerosol output (fraction of actually inhaled E64d) ([5]; 0.34 mg/ml solution): 80% | aerosol output (fraction of actually inhaled E64d) ([5]; 34 mg/ml solution): 63% | fine particle fraction (<5 μm) ([5]; all concentrations tested (0.34, 3.4 and 34 mg/ml)): > 95% | aerosol release rate ([5]; concentration of the solution 340 ug/ml): 0.108 mg/min | aerosol release rate ([5]; concentration of the solution 3.4 mg/ml): 1 mg/min | aerosol release rate ([5]; concentration of the solution 34 mg/ml): 8.7 mg/min | cumulative active compound deposition ([5]; particle size distribution about 0.5-3 μm, impactor assays): > 99% | cell lysis [6]: effectively inhibited | virus replication of SARS-CoV-2 [6]: effectively inhibited | body weight [7, 23]: no statistical differences between the groups | changes in clinical chemistry parameters [7, 23]: considered incidental | clinical observations [7, 23]: no clinical observations were noted | mortality [7, 23]: No animal was found dead or killed moribund | lung with a spongy consistency (animals affected) ([7]; low dose group): 1/5 | lung with a spongy consistency (animals affected) ([7]; medium dose group): 1/5 | slightly enlarged lung-associated lymph nodes (animals affected) ([7]; male animals, medium dose group, macroscopic examination): 2/5 | histopathological examination ([7]; respiratory tract, lymph nodes, heart, kidneys, liver, spleen, after 14 days and after 14 days recovery): no treatment-related findings were detected | inhibition of virus entry [8]: additive efficacy | TGF-beta induced release of alpha-smooth muscle actin (aSMA) [9]: inhibits the TGF-beta induced release | TGF-beta induced release of collagen 1 [9]: inhibits the TGF-beta induced release | TGFbeta-induced collagen production [9]: lowers the TGFbeta-induced collagen production of A549 in a dose-dependent manner | TGFbeta-induced collagen release at highest dose [9]: almost goes back to the initial value | IL-17 induced proliferation and differentiation of fibroblasts [10]: inhibiting the IL-17 induced proliferation and differentiation of fibroblasts | cell lysis [11]: effectively inhibited | virus replication of SARS-CoV-2 [11]: effectively inhibited | Th17 differentiation [12]: suppresses Th17 differentiation in a dose-dependent manner | precipitation in the overlay agar on the incubated agar plates [13]: 5000 μg/plate | toxic effects (reduction in the number of revertants) ([13]; all strains, with and without metabolic activation, up to 5000 μg/plate): No toxic effects | increase in revertant colony numbers ([13]; five tester strains, any dose level, with and without S9 mix): No substantial increase | mutagenicity ([13]; reverse mutation assay conclusion): non-mutagenic | polarization of Th2-lymphocytes [14]: polarize Th2-lymphocytes into Th1-lymphocytes | Th1 cells ([14]; co-incubation with E64D): dose-dependently up-regulates | Th17 and Th17.1 cells ([14]; co-incubation with E64D): dose-dependently down-regulates | Treg lymphocytes ([14]; co-incubation with E64D): upregulation of Treg lymphocytes | percentage of Th17 cells ([14]; stimulation with IC-beads, with or without cytokine mix, whole blood lymphocytes and T-lymphocytes from bronchoalveolar lavage): reduces the percentage of Th17 cells | IL-8 release [15]: clearly lowers the IL-8 release | cytotoxicity [16]: non-toxic | serum AST and ALT activities ([17]; rat, in vivo): rose dramatically | time of minimum liver GSH level after administration ([17]; rat, in vivo): 5 h | liver glutathion (GSH) levels ([17]; rats): obvious drop | dose absorbed [18]: at least 60% | release of the cytokine IL-17 [19]: can be inhibited | solubility [20]: ≤ 68000 µg/mL and ≤ 199000 µM | No-Observed-Adverse-Effect-Level (NOAEL), pulmonary dose [21]: 413 μg/kg bw

CC(C)C[C@H](NC(=O)[C@H]1O[C@@H]1C(=O)O)C(=O)NCCCCN=C(N)N [E64]
emphysematous changes [22]: markedly attenuated emphysematous changes
